Measurements reported in article PMC12489694, “Design, Synthesis, Antidiabetic Activity and In Silico Studies of New Hydrazone Derivatives Derived from Acetohexamide” (ACS Omega, 2025).
“Also recorded” adds a separate entry of the source. Where two headings read alike, the source gives them in different places.

Tests used:
[1] = test system: HEK293 cells; assay: MTT cytotoxicity assay on HEK293 cells; type: cell-based, human; settings: for cytotoxic effects on healthy HEK293 cells (in words): 24 h, up to 100 μM; for IC50: Homo sapiens, HEK293, 24 h exposure, 12.5–100 μM
Experimental: The HEK293 was used for cell culture studies and obtained from the American Type Culture Collection (ATCC). Cells were cultured in RPMI-1640 cell medium supplemented with 10% fetal calf serum (FBS) and 1% penicillin/streptomycin. Cells were seeded 6 × 10^5/mL density into 96 well cell culture plates and incubated in a CO2 incubator at 37 °C. The cells were exposed to different chemical concentrations (100, 50, 25 and 12,5 μM) for 24 h after reaching a confluency of 80%.
The MTT assay was used to assess the cell viability. The MTT assay included putting the cells in an MTT solution (at 1 mg/mL concentration) and incubating them for 1 h at 37 °C. The absorbance was measured at a wavelength of 570 nm using an Epoch microplate spectrophotometer.

[2] = target: α-glucosidase; assay: α-glucosidase inhibitory activity (p-nitrophenyl-α-D-glucopyranoside method); type: biochemical
Experimental: After 20 min incubation at 37 °C, 90 μL Na2CO3 (100 mM) was added into the each well to stop the enzymatic reaction. Absorbance of the 96-well microplate reader was recorded at 400 nm. Antidiabetic inhibition activity data were taken in three parallel measurements for four concentrations of each synthesis sample. The results of the biological activity analyses are presented as IC50 values.

[3] = target: T1, α-amylase (Sus scrofa, UniProt P00690); assay: α-amylase inhibitory activity (spectroscopic starch/Lugol method); type: biochemical
T1 sequence (P00690 16-511): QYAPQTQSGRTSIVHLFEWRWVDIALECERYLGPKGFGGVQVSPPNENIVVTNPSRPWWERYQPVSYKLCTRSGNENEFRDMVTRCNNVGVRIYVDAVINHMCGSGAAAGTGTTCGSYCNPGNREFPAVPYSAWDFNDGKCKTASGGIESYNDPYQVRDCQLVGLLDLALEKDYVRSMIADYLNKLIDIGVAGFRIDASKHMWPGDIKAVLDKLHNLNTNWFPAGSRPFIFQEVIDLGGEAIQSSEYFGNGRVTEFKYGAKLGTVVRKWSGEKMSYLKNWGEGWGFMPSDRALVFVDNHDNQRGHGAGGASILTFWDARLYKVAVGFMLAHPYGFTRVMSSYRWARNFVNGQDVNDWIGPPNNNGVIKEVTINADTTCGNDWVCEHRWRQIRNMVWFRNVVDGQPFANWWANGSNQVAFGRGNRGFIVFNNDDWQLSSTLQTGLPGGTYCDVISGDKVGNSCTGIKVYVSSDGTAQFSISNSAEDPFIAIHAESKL

[4] = test system: α-glucosidase; assay: α-glucosidase inhibitory activity (p-nitrophenyl-α-D-glucopyranoside method); type: biochemical; remark: listed apart in the source
[5] = mean ± SEM of three parallel measurements, read-out: antidiabetic inhibition activity IC50, α-glucosidase
[6] = no unit in Table 5, same values as Table 2 (there μM), read-out: IC50 value (α-glucosidase), as repeated in docking Table 5

Compound	cytotoxic effects on healthy HEK293 cells (in words) [1]	IC50 [1] [µM]	IC50 [2, 5] [µM]	IC50 [2, 6] [µM]	type of inhibition of α-amylase (enzyme kinetic study, Lineweaver–Burk) [3]	type of inhibition of α-glucosidase (enzyme kinetic study, Lineweaver–Burk) [4]
C[C@H]1O[C@H](O[C@H]2[C@H](O)[C@@H](O)[C@@H](O[C@H]3[C@H](O)[C@@H](O)C(O)O[C@@H]3CO)O[C@@H]2CO)[C@H](O)[C@@H](O)[C@@H]1N[C@H]1C=C(CO)[C@@H](O)[C@H](O)[C@H]1O (some centres unmarked) [acarbose, reference compound]	nontoxic; also recorded: no cytotoxic effects	> 100	–	–	–	–
C/C(=N\NC(=O)c1ccccc1)c1ccc(S(=O)(=O)NC(=O)NC2CCCCC2)cc1 [compound 1, 4-(1-(2-Benzoylhydrazinilidene)-ethyl)-N-(cyclohexylcarbamoyl)-benzenesulfonamide]	–	> 100	108 ± 0.69	108 ± 0.69	–	–
CC(=NNC(=O)c1cccc(Cl)c1)c1ccc(S(=O)(=O)NC(=O)NC2CCCCC2)cc1 [compound 2, 4-(1-(2-(3-Chlorobenzoyl)-hydrazinylidene)-ethyl)-N-(cyclohexylcarbamoyl)-benzenesulfonamide]	–	> 100	68.75 ± 0.37	68.75 ± 0.37	–	–
CC(=NNC(=O)c1ccc(F)cc1)c1ccc(S(=O)(=O)NC(=O)NC2CCCCC2)cc1 [compound 3, N-(Cyclohexylcarbamoyl)-4-(1-(2-(4-fluorobenzoyl)-hydrazinylidene)-ethyl)-benzenesulfonamide]	not causing any damage to healthy cells; also recorded: no negative impact on healthy cells	> 100	45.34 ± 0.36	45.34 ± 0.36	–	–
CC(=NNC(=O)c1ccc(I)cc1)c1ccc(S(=O)(=O)NC(=O)NC2CCCCC2)cc1 [compound 4, N-(Cyclohexylcarbamoyl)-4-(1-(2-(4-iodobenzoyl)-hydrazinylidene)-ethyl)-benzenesulfonamide]	–	> 100	84.97 ± 0.46	84.97 ± 0.46	–	–
CC(=NNC(=O)c1ccc(Br)cc1)c1ccc(S(=O)(=O)NC(=O)NC2CCCCC2)cc1 [compound 5, N-(Cyclohexylcarbamoyl)-4-(1-(2-(4-bromobenzoyl)-hydrazinylidene)-ethyl)-benzenesulfonamide]	–	> 100	77.36 ± 0.31	77.36 ± 0.31	–	–
CC(=NNC(=O)c1ccc(C)cc1)c1ccc(S(=O)(=O)NC(=O)NC2CCCCC2)cc1 [compound 7, N-(Cyclohexylcarbamoyl)-4-(1-(2-(4-methylbenzoyl)-hydrazinylidene)-ethyl)-benzenesulfonamide]	–	61	46.14 ± 0.33	46.14 ± 0.33	–	–
COc1ccc(C(=O)N/N=C(\C)c2ccc(S(=O)(=O)NC(=O)NC3CCCCC3)cc2)cc1 [compound 8, N-(Cyclohexylcarbamoyl)-4-(1-(2-(4-methoxy)-hydrazinilidene)-ethyl)-benzenesulfonamide]	not causing any damage to healthy cells; also recorded: no negative impact on healthy cells	–	38.1 ± 0.8	38.1 ± 0.8	uncompetitive	uncompetitive
CC(=NNC(=O)c1cccc([N+](=O)[O-])c1)c1ccc(S(=O)(=O)NC(=O)NC2CCCCC2)cc1 [compound 9, N-(Cyclohexylcarbamoyl)-4-(1-(2-(3-nitrobenzoyl)-hydrazinylidene)-ethyl)-benzenesulfonamide]	–	69.2	61.2 ± 0.69	61.2 ± 0.69	–	–
CC(=NNC(=O)c1ccc([N+](=O)[O-])cc1)c1ccc(S(=O)(=O)NC(=O)NC2CCCCC2)cc1 [compound 10, N-(Cyclohexylcarbamoyl)-4-(1-(2-(4-nitrobenzoyl)-hydrazinylidene)-ethyl)-benzenesulfonamide]	not causing any damage to healthy cells; also recorded: no negative impact on healthy cells	> 100	40.44 ± 0.23	40.44 ± 0.23	–	–
C/C(=N\NC(=O)c1cccc2ccccc12)c1ccc(S(=O)(=O)NC(=O)NC2CCCCC2)cc1 [compound 11, 4-(1-(2-(1-Naphthalene)-hydrazinylidene)-ethyl)-N-(cyclocarbamoyl)-benzenesulfonamide]	–	> 100	57.1 ± 0.78	57.1 ± 0.78	–	–
CC(=NNC(=O)c1ccccc1[N+](=O)[O-])c1ccc(S(=O)(=O)NC(=O)NC2CCCCC2)cc1 [compound 13, N-(Cyclohexylcarbamoyl)-4-(1-(2-(2-nitrobenzoyl)-hydrazinylidene)-ethyl)-benzenesulfonamide]	–	> 100	66.38 ± 0.37	66.38 ± 0.37	–	–
CC(=NNC(=O)c1ccc(Cl)cc1)c1ccc(S(=O)(=O)NC(=O)NC2CCCCC2)cc1 [compound 14, 4-(1-(2-(4-Chlorobenzoyl)-hydrazinylidene)-ethyl)-N-(cyclohexylcarbamoyl)-benzenesulfonamide]	–	–	52.25 ± 0.44	52.25 ± 0.44	–	–
